Columns and labels:
[1] = In vitro cytotoxicity assay (MTT cell viability) in HepG2 cells; format: cell-based, human; details: human
Summary of the method: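 Parental HepG2 cells in EMEM + 10% FBS were exposed to compounds (8 half-log dilutions, 30 μM to 1.0 nM) for 7 days at 37 °C, 5% CO2. MTT was then added for 3-4 h, formazan dissolved in DMSO and absorbance read at 492 nm; CC50 came from 4-parameter fits against vehicle controls.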

[2] = tested on: HBV replication in HepAD38 cells; assay: Anti-HBV replication assay in HepAD38 cells (QPCR of extracellular HBV DNA); format: cell-based, HBV (genotype D, serotype ayw); details: Hepatitis B virus, 168 h, 7 days incubation, extracellular HBV DNA by QPCR, read-out: Anti-HBV EC50
Summary of the method: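 Stably transfected HepG2-derived HepAD38 cells express HBV (genotype D, ayw) once tetracycline is withdrawn. Compounds act for 7 days, after which secreted HBV DNA is quantified by QPCR relative to DMSO-treated wells.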

| Compound | CC50 at 7 days [1] [µM] | EC50 [2] [µM] |
| --- | --- | --- |
| O=C(N[C@H]1C[C@H](O)C1)C(=O)c1c(Cl)c(C(=O)Nc2ccc(F)c(Cl)c2)c2n1CCCC2 [Example 531, 2-chloro-N-(3-chloro-4-fluorophenyl)-3-(2-(((1r,3r)-3-hydroxycyclobutyl)amino)-2-oxoacetyl)-5,6,7,8-tetrahydroindolizine-1-carboxamide] | > 30 | 0.05 to 0.499 |
| Cc1c(C(=O)Nc2ccc(F)c(F)c2)c(C)n(C)c1C(=O)C(=O)NC1(c2nnn[nH]2)CCCC1 [Example 698, 5-(2-((1-(1H-tetrazol-5-yl)cyclopentyl)amino)-2-oxoacetyl)-N-(3,4-difluorophenyl)-1,2,4-trimethyl-1H-pyrrole-3-carboxmide] | > 30 | 0.05 to 0.499 |
| Cc1c(C(=O)Nc2ccc(F)c(F)c2)c(C)n(C)c1C(=O)C(=O)N[C@]1(C)CC[C@@H](O)CC1 [Example 706, N-(3,4-difluorophenyl)-5-(2-(((1r,4r)-4-hydroxy-1-methylcyclohexxyl)amino)-2-oxoacetyl)-1,2,4-trimethyl-1H-pyrrole-3-carboxmaide] | > 30 | < 0.05 |
| Cc1cc(NC(=O)c2c(C)c(C(=O)C(=O)N[C@@H]3CCc4nc(N)sc4C3)n(C)c2C)ccc1F [Example 76, (R)-5-(2-((2-amino-4,5,6,7-tetrahydrobenzo[d]thiazol-6-yl)amino)-2-oxoacetyl)-N-(4-fluoro-3-methylphenyl)-1,2,4-trimethyl-1H-pyrrole-3-carboxamide] | 5 to 30 | < 0.05 |
| CO[C@H]1CC[C@H](NC(=O)C(=O)c2c(C)c(C(=O)Nc3ccc(F)c(C)c3)c(C)n2C)CC1 [Example 269, N-(4-fluoro-3-methylphenyl)-5-(2-(((1r,4r)-4-methoxycyclohexyl)amino)-2-oxoacetyl)-1,2,4-trimethyl-1H-pyrrole-3-carboxamide] | 5 to 30 | < 0.05 |
| Cc1c(C(=O)Nc2ccc(F)c(Cl)c2)c2n(c1C(=O)C(=O)NCC(C)(C)O)CCCC2 [Example 467, N-(3-chloro-4-fluorophenyl)-3-(2-((2-hydroxy-2-methylpropyl)amino)-2-oxoacetyl)-2-methyl-5,6,7,8-tetrahydroindolizine-1-carboxamide] | > 30 | 0.5 to 1 |
| Cc1cc(NC(=O)c2c(C)c(C(=O)C(=O)NC3CC[C@@H](O)[C@@H](O)CC3)n(C)c2C)ccc1F (stereo partly drawn) [Example 713, 5-(2-(((4R,5S)-4,5-dihydroxycycloheptyl)amino)-2-oxoacetyl)-N-(4-fluoro-3-methylphenyl)-1,2,4-trimethyl-1H-pyrrole-3-carboxamide] | > 30 | < 0.05 |
| Cc1cc(NC(=O)c2c(C)c(C(=O)C(=O)NC(C)(C)C(F)(F)F)n(C)c2C)cnc1F [Example 173, N-(6-fluoro-5-methylpyridin-3-yl)-1,2,4-trimethyl-5-(2-oxo-2-((1,1,1-trifluoro-2-methylpropan-2-yl)amino)acetyl)-1H-pyrrole-3-carboxamide] | > 30 | < 0.05 |
| Cc1c(C(=O)Nc2ccnc(F)c2)c(C)n(C)c1C(=O)C(=O)NC1CCSCC1 [Example 272, N-(2-fluoropyridin-4-yl)-1,2,4-trimethyl-5-(2-oxo-2-((tetrahydro-2H-thiopyran-4-yl)amino)acetyl)-1H-pyrrole-3-carboxamide] | > 30 | < 0.05 |
| Cc1cc(NC(=O)c2c(C)c(C(=O)C(=O)NC3(C)CCN(S(C)(=O)=O)CC3)n(C)c2C)ccc1F [Example 613, N-(4-fluoro-3-methylphenyl)-1,2,4-trimethyl-5-(2-((4-methyl-1-(methylsulfonyl)piperidin-4-yl)amino)-2-oxoacetyl)-1H-pyrrole-3-carboxamide] | > 30 | < 0.05 |
| Cc1noc([C@@H](C)NC(=O)C(=O)c2c(Cl)c(C(=O)Nc3ccc(F)c(Cl)c3)c3n2CCC3)n1 [Example 554, (R)-6-chloro-N-(3-chloro-4-fluorophenyl)-5-(2-((1-(3-methyl-1,2,4-oxadiazol-5-yl)ethyl)amino)-2-oxoacetyl)-2,3-dihydro-1H-pyrrolizine-7-carboxamide] | 5 to 30 | < 0.05 |
| COCC(C)(C)NC(=O)C(=O)c1c(C)c(C(=O)Nc2ccc(F)nc2)c(C)n1C [Example 168, N-(6-fluoropyridin-3-yl)-5-(2-((1-methoxy-2-methylpropan-2-yl)amino)-2-oxoacetyl)-1,2,4-trimethyl-1H-pyrrole-3-carboxamide] | > 30 | 0.05 to 0.499 |
| Cc1nc(CCNC(=O)C(=O)c2c(C)c(C(=O)Nc3ccc(F)c(C)c3)c(C)n2C)c(C)s1 [Example 327, 5-(2-((2-(2,5-dimethylthiazol-4-yl)ethyl)amnio)-2-oxoacetyl)-N-(4-fluoro-3-methylphenyl)-1,2,4-trimethyl-1H-pyrrole-3-carboxamide] | > 30 | < 0.05 |
| Cc1c(C(=O)Nc2ccc(F)c(F)c2)c2n(c1C(=O)C(=O)N[C@H]1CCC[C@H]1O)CCCC2 [Example 458, N-(3,4-difluorophenyl)-3-(2-(((1S,2R)-2-hydroxycyclopentyl)amino)-2-oxoacetyl)-2-methyl-5,6,7,8-tetrahydroindolizine-1-carboxamide] | 5 to 30 | 0.5 to 1 |
| Cc1c(C(=O)Nc2ccc(F)c(Cl)c2)c(Cl)c(C(=O)C(=O)NC(C)(C)C)n1C [Example 370, 5-(2-(tert-butylamino)-2-oxoacetyl)-4-chloro-N-(3-chloro-4-fluorophenyl)-1,2-dimethyl-1H-pyrrole-3-carboxamide] | > 30 | < 0.05 |
| Cc1c(C(=O)Nc2ccc(F)nc2)c(C)n(C)c1C(=O)C(=O)NC1CCc2nc(N)sc2C1 (stereo not shown) [Example 77, 5-(2-((2-amino-4,5,6,7-tetrahydrobenzo[d]thiazol-6-yl)amino)-2-oxoacetyl)-N-(6-fluoropyridin-3-yl)-1,2,4-trimethyl-1H-pyrrole-3-carboxamide] | > 30 | 0.05 to 0.499 |
| Cc1cc(NC(=O)c2c(C)c(C(=O)C(=O)NCc3csc(N)n3)n(C)c2C)ccc1F [Example 111, 5-(2-(((2-aminothiazol-4-yl)methyl)amino)-2-oxoacetyl)-N-(4-fluoro-3-methylphenyl)-1,2,4-trimethyl-1H-pyrrole-3-carboxamide] | > 30 | < 0.05 |
| Cc1cc(NC(=O)c2c(C)c(C(=O)C(=O)N[C@@H](CO)[C@H](C)O)n(C)c2C)ccc1F [Example 103, 5-(2-(((2S,3S)-1,3-dihydroxybutan-2-yl)amino)-2-oxoacetyl)-N-(4-fluoro-3-methylphenyl)-1,2,4-trimethyl-1H-pyrrole-3-carboxamide] | > 30 | < 0.05 |
| Cc1nc(C2(NC(=O)C(=O)c3c(C)c(C(=O)Nc4ccc(F)c(C)c4)c(C)n3C)CCCCC2)no1 [Example 632, N-(4-fluoro-3-methylphenyl)-1,2,4-trimethyl-5-(2-((1-(5-methyl-1,2,4-oxadiazol-3-yl)cyclohexyl)amino)-2-oxoacetyl)-1H-pyrrole-3-carboxamide] | > 30 | < 0.05 |
| Cc1cc(NC(=O)c2c(C)c(C(=O)C(=O)N[C@H](CO)C(N)=O)n(C)c2C)ccc1F [Example 54, (R)-5-(2-((1-amino-3-hydroxy-1-oxopropan-2-yl)amino)-2-oxoacetyl)-N-(4-fluoro-3-methylphenyl)-1,2,4-trimethyl-1H-pyrrole-3-carboxamide] | > 30 | 0.05 to 0.499 |
| Cc1cc(NC(=O)c2c(C)c(C(=O)C(=O)N[C@]3(C)CC[C@@H](O)CC3)n(C)c2C)ccc1F [Example 273, N-(4-fluoro-3-methylphenyl)-5-(2-(((1r,4r)-4-hydroxy-1-methylcyclohexyl)amino)-2-oxoacetyl)-1,2,4-trimethyl-1H-pyrrole-3-carboxamide] | > 30 | < 0.05 |
| Cc1cc(NC(=O)c2c(C)c(C(=O)C(=O)NC3CCN(C4COC4)CC3)n(C)c2C)ccc1F [Example 652, N-(4-fluoro-3-methylphenyl)-1,2,4-trimethyl-5-(2-((1-(oxetan-3-yl)piperidin-4-yl)amino)-2-oxoacetyl)-1H-pyrrole-3-carboxamide] | > 30 | < 0.05 |
| Cc1c(C(=O)Nc2ncc(C(F)(F)F)s2)c2n(c1C(=O)C(=O)NC(C)(C)CO)CCCC2 [Example 757, 3-(2-((1-hydroxy-2-methylpropan-2-yl)amino)-2-oxoacetyl)-2-methyl-N-(5-(trifluoromethyl)thiazol-2-yl)-5,6,7,8-tetrahydroindolizine-1-carboxamide] | > 30 | 0.05 to 0.499 |
| CC[C@H](C)NC(=O)C1(NC(=O)C(=O)c2c(C)c(C(=O)Nc3ccc(F)c(C)c3)c(C)n2C)CCOCC1 [Example 682, (S)-5-(2-((4-(sec-butylcarbamoyl)tetrahydro-2H-pyran-4-yl)amino)-2-oxoacetyl)-N-(4-fluoro-3-methylphenyl)-1,2,4-trimethyl-1H-pyrrole-3-carboxamide] | > 30 | < 0.05 |
| Cc1nnc(C2(NC(=O)C(=O)c3c(C)c(C(=O)Nc4ccc(F)c(C)c4)c(C)n3CCF)CC2)o1 [Example 201, N-(4-fluoro-3-methylphenyl)-1-(2-fluoroethyl)-2,4-dimethyl-5-(2-((1-(5-methyl-1,3,4-oxadiazol-2-yl)cyclopropyl)amino)-2-oxoacetyl)-1H-pyrrole-3-carboxamide] | > 30 | 0.05 to 0.499 |
| Cc1c(C(=O)Nc2cccc(C(F)F)c2)c(C)n(C)c1C(=O)C(=O)N[C@]1(C)C[C@@H](O)C1 [Example 720, N-(3-(difluoromethyl)phenyl)-5-(2-(((1r,3r)-3-hydroxy-1-methylcycloutyl)amino)-2-oxoacetyl)-1,2,4-trimethyl-1H-pyrrole-3-carboxamide] | > 30 | < 0.05 |
